# Test results as given in the PolyMetriX glass transition set.
# ± gives the standard deviation of the reports.
row,Structure (SMILES),glass transition temperature [°C]
1,*CC(C)(COC(=O)O*)C(=O)OCc1ccccc1 (repeat unit),-2.00
2,*N=P(*)(CC1COCCOCCOCCO1)OCC1COCCOCCOCCO1 (repeat unit),-40.00
3,*c1ccc2c(c1)C(=O)N(c1ccc(-c3ccc(N4C(=O)c5ccc(C(*)(C(F)(F)F)C(F)(F)F)cc5C4=O)c(OCCN(CC)c4ccc(C(C#N)=C(C#N)C#N)cc4)c3)cc1OCCN(CC)c1ccc(C(C#N)=C(C#N)C#N)cc1)C2=O (repeat unit),222.00
4,*CCN* (repeat unit) [poly(2-oxazoline)s],-35.77 ± 17
5,*O[Si](C)(C)O[Si](C)(C)OC(C)CCC(*)C (repeat unit),-83.00
6,*c1ccc(-c2ccc(-n3c(=O)c4c(C(F)(F)F)c5c(=O)n(*)c(=O)c5c(C(F)(F)F)c4c3=O)cc2C)c(C)c1 (repeat unit),385.00
7,*C(=O)c1ccc(N(*)CCCCC)cc1 (repeat unit),83.50
8,*Oc1ccc(C(=O)NCC(C)(C)CCCNC(=O)c2ccc(*)cc2)cc1 (repeat unit),155.00
9,*C(=O)Nc1ccc(NC(=O)c2ccc3c(c2)C(=O)N(c2ccc(-c4sc(-c5ccc(N6C(=O)c7ccc(*)cc7C6=O)cc5)c(-c5ccccc5)c4-c4ccccc4)cc2)C3=O)cc1 (repeat unit),333.00
10,*Oc1cc(OC(=O)c2ccc(C)cc2)c(OC(=O)CCCCCCCCCCCCCCC(*)=O)cc1OC(=O)c1ccc(C)cc1 (repeat unit),27.00
11,*c1ccc(Oc2cccc(Oc3ccc(-n4c(=O)c5cc6c(=O)n(*)c(=O)c6cc5c4=O)cc3)c2)cc1 (repeat unit),326.00
12,*Cc1cc(C23CC4CC(CC(C4)C2)C3)cc(CN(*)c2ccccc2)c1O (repeat unit),109.40
13,*C(=O)c1ccc2c(c1)C(=O)N(c1ccc(Cl)c(N3C(=O)c4ccc(*)cc4C3=O)c1)C2=O (repeat unit),305.00
14,*CC(*)C(=O)c1ccc(C)c(C)c1 (repeat unit),42.00
15,*Oc1ccc(S(=O)(=O)c2ccc(OC(=O)c3ccc([Si](C)(C)c4ccc(C(*)=O)cc4)cc3)cc2)cc1 (repeat unit),235.00
16,*c1ccc(OC(=O)c2ccc(C(=O)Oc3ccc(C4(*)OC(=O)c5ccccc54)cc3)cc2)cc1 (repeat unit),279.00
17,*CC(O)COC(=O)/C=C/C(=O)Oc1ccc(C(C)(C)c2ccc(O*)cc2)cc1 (repeat unit),32.00
18,*CC(*)C(=O)OCCCCCC (repeat unit),-57.00
19,*CC(*)c1ccccc1COC(C)C (repeat unit),88.00
20,*CC1CC2CC1C1CCC(Cn3c(=O)c4cc5c(=O)n(*)c(=O)c5cc4c3=O)C21 (repeat unit),265.00
21,*CC(COC(=O)O*)OCCCCCCOc1ccc(/C=C/c2ccc([N+](=O)[O-])cc2)cc1 (repeat unit),32.00
22,*NNC(=O)c1ccc(C(*)=O)cc1OCCCCCCCC (repeat unit),203.50
23,*c1cccc(C(F)(F)C(F)(F)C(F)(F)c2cccc(N3C(=O)c4ccc(Oc5ccc6c(c5)C(=O)N(*)C6=O)cc4C3=O)c2)c1 (repeat unit),183.00
24,*C(=O)c1ccc2c(c1)C(=O)N(c1c(C)cc(C(c3cc(C)c(N4C(=O)c5ccc(*)cc5C4=O)c(C)c3)c3cccc4ccccc34)cc1C)C2=O (repeat unit),318.00

row,Structure (SMILES),glass transition temperature [°C]
1,*c1ccc2cc(OC(=O)c3ccc(C(=O)Oc4ccc5cc(-c6nc7ccccc7nc6*)ccc5c4)cc3)ccc2c1 (repeat unit),136.00
2,*c1ccc2c(c1)C(=O)N(c1ccc(Oc3ccc(C(C)(C)c4ccc(Oc5ccc(N6C(=O)c7ccc(C(*)(C(F)(F)F)C(F)(F)F)cc7C6=O)cc5)cc4)cc3)cc1)C2=O (repeat unit),246.70 ± 3.3
3,*c1ccc(Oc2ccc(Oc3ccc(NC(=O)c4ccc(Oc5cccc6c5C(=O)N(*)C6=O)cc4)cc3)cc2)cc1 (repeat unit),244.00
4,*Oc1ccc(C(=O)OCCCOC(=O)c2ccc(*)cc2)cc1 (repeat unit),57.00
5,*CCOCCOCCOC(=O)CCCCC(=O)O* (repeat unit),-49.00
6,*c1ccc(Oc2ccc(C(C)(C)c3ccc(Oc4ccc(N5C(=O)C6CCC(C7CCC8C(=O)N(*)C(=O)C8C7)CC6C5=O)cc4)cc3)cc2)cc1 (repeat unit),225.00
7,*Oc1c(Cl)cc(C2(c3cc(Cl)c(OC(*)=O)c(Cl)c3)CC3CC2C2CCCC32)cc1Cl (repeat unit),281.00
8,*CC(*)C(=O)OCCOCCOC(F)(F)C(F)F (repeat unit),-40.00
9,*/C=C/c1cc(OCCCCCCCC)c(*)cc1OC (repeat unit),58.00
10,*CCCCCCCCCCOC(=O)NNC(=O)CCCCCCCCC(=O)NNC(=O)O* (repeat unit),34.00
11,*c1ccc(Oc2ccc(S(=O)(=O)c3ccc(Oc4ccc(N5C(=O)c6ccc(Oc7ccc(C(C)(C)c8ccc(Oc9ccc%10c(c9)C(=O)N(*)C%10=O)cc8)cc7)cc6C5=O)cc4)cc3)cc2)cc1 (repeat unit),200.00
12,*C(=O)OCCCCOC(=O)c1ccc(N2C(=O)c3ccc(*)cc3C2=O)cc1 (repeat unit),100.50
13,*CC(*)(C)C(=O)OCCOc1ccc(C(=O)Oc2ccc(OCCCC)cc2)cc1 (repeat unit),137.00
14,*c1ccc(-c2ccc(-c3nnc(-c4ccc([Si](c5ccccc5)(c5ccccc5)c5ccc(-c6nnc(*)o6)cc5)cc4)o3)cc2)cc1 (repeat unit),278.00
15,*c1ccc(Cc2ccc(N3C(=O)c4ccc(Oc5ccc(Oc6ccc7c(c6)C(=O)N(*)C7=O)cc5)cc4C3=O)c(OC)c2)cc1OC (repeat unit),269.00
16,*Nc1ccc(CC(C)(C)NC(=O)CCC(*)=O)cc1 (repeat unit),158.00
17,*c1cccc(OCCCCCOc2cccc(N3C(=O)c4ccc(-c5ccc6c(c5)C(=O)N(*)C6=O)cc4C3=O)c2)c1 (repeat unit),165.00
18,*CC(*)(C)C(=O)O (repeat unit),161.70
19,*c1cccc(P(=O)(c2ccccc2)c2cccc(-n3c(=O)c4c(-c5ccccc5)c5c(=O)n(*)c(=O)c5c(-c5ccccc5)c4c3=O)c2)c1 (repeat unit),342.00
20,*CCCCCC(*)CCCCCCCCCC (repeat unit),-65.00
21,*c1ccc(NC(=O)CN2C(=O)c3ccc(C(c4ccc5c(c4)C(=O)N(CC(=O)Nc4ccc(-c6nnc(*)o6)cc4)C5=O)(C(F)(F)F)C(F)(F)F)cc3C2=O)cc1 (repeat unit),280.00
22,*C/C=C/C[Si](*)(c1ccccc1)c1ccccc1 (repeat unit),34.90
23,*c1ccc(Oc2ccc(S(=O)(=O)c3ccc(Oc4ccc(-c5c6c(c(*)c7ccccc57)C(=O)N(c5ccc(F)cc5)C6=O)cc4)cc3)cc2)cc1 (repeat unit),300.00
24,*CC(COc1ccc(C(C)(C)c2ccc(O*)cc2)cc1)OC(=O)/C=C/c1ccccc1 (repeat unit),100.60
